Laboratory results taken from paper PMC5762315, “Inhibition of polo-like kinase 4 (PLK4): a new therapeutic option for rhabdoid tumors and pediatric medulloblastoma” (Oncotarget, 2017).
Where “and” joins values, the source holds several entries; their conditions need not be identical. Equal values may be shown once.

How the values were obtained:
Assay in all cases: biochemical
Type in all cases: biochemical
various kinases [1] = molecular target: various kinases (Homo sapiens, UniProt O15530)
various kinases [2] = molecular target: various kinases (Homo sapiens, UniProt P51812); conditions: kinase RPS6KA3 (RSK2); ZLYTE
Sequence of various kinases (Homo sapiens, UniProt P51812) (P51812 whole entry): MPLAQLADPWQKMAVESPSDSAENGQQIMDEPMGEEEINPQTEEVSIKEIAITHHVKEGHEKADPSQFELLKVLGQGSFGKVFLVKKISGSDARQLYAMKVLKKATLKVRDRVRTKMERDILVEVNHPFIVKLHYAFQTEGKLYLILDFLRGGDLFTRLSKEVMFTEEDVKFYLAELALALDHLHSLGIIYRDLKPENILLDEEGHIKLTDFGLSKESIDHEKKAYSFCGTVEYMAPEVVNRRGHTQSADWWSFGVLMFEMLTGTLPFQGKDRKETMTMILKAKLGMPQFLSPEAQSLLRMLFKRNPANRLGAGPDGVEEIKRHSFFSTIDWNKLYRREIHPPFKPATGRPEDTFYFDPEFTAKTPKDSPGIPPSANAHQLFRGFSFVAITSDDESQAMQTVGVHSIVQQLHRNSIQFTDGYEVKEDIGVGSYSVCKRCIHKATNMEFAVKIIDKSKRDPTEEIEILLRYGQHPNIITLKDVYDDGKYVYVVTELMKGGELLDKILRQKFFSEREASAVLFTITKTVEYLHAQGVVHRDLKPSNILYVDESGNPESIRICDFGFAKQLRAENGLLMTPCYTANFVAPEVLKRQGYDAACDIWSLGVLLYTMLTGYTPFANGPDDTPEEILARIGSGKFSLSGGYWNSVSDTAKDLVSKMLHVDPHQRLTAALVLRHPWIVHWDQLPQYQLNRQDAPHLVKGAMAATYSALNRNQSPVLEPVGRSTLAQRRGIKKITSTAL

various kinases [3] = molecular target: various kinases (Homo sapiens, UniProt Q8NE63); conditions: HIPK4
various kinases [4] = molecular target: various kinases (Homo sapiens, UniProt P11362); conditions: FGFR1
various kinases [5] = molecular target: various kinases (Homo sapiens, UniProt P49137); conditions: MAPKAPK2
various kinases [6] = molecular target: various kinases (Homo sapiens, UniProt P27448); conditions: MARK3
various kinases [7] = molecular target: T1, various kinases (Homo sapiens, UniProt Q06418); conditions: kinase TYRO3 (RSE); ZLYTE
T1 sequence (Q06418 41-890): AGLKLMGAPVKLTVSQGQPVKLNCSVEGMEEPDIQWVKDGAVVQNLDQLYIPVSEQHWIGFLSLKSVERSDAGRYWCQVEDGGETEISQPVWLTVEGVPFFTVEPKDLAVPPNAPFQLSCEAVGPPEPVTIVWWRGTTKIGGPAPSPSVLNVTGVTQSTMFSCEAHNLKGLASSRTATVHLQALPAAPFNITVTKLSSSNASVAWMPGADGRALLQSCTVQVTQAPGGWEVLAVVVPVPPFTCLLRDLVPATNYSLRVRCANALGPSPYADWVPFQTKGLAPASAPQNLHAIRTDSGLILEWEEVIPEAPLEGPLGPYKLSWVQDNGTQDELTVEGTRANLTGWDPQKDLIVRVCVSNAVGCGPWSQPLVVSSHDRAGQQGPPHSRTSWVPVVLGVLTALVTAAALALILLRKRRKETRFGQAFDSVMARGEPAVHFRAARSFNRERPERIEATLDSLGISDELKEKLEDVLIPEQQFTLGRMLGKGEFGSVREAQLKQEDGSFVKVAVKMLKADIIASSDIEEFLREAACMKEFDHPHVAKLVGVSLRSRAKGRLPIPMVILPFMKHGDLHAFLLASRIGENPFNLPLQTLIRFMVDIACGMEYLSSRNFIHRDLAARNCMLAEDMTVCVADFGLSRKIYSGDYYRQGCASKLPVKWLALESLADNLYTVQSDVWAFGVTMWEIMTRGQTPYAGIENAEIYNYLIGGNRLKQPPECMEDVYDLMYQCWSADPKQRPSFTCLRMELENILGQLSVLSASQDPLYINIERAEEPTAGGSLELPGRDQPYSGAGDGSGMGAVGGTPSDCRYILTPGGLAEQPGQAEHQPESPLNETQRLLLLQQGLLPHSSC

various kinases [8] = molecular target: various kinases (Homo sapiens, UniProt P16234, V561D); conditions: PDGFRA V561D
various kinases [9] = molecular target: various kinases (Homo sapiens, UniProt Q9Y6E0); conditions: kinase STK24 (MST3); ZLYTE
Sequence of various kinases (Homo sapiens, UniProt Q9Y6E0) (Q9Y6E0 whole entry): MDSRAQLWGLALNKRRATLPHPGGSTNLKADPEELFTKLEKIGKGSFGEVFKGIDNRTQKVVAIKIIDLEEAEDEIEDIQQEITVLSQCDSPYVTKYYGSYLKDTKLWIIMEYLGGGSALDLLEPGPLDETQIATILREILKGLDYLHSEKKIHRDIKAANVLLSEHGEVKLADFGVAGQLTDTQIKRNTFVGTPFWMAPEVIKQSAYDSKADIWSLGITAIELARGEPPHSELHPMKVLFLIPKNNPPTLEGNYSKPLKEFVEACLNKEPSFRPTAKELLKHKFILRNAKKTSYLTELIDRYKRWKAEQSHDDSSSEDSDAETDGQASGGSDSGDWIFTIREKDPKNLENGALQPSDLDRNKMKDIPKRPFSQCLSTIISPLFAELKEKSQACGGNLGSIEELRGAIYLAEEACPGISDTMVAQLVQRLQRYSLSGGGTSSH

various kinases [10] = molecular target: various kinases (Homo sapiens, UniProt P19784); conditions: CSNK2A2 (CK2 alpha 2)
Sequence of various kinases (Homo sapiens, UniProt P19784) (P19784 whole entry): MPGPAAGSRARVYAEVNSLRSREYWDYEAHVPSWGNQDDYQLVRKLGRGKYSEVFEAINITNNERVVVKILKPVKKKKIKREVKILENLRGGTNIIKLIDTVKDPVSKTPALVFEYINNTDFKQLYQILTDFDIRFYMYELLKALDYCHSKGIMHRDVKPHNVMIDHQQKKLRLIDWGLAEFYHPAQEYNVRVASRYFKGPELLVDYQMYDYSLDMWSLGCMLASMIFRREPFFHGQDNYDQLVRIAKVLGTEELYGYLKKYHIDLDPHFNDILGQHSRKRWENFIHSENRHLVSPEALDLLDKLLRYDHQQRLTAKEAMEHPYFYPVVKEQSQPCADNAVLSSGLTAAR

various kinases [11] = molecular target: various kinases (Homo sapiens, UniProt Q9P1W9); conditions: PIM2
Sequence of various kinases (Homo sapiens, UniProt Q9P1W9) (Q9P1W9 whole entry): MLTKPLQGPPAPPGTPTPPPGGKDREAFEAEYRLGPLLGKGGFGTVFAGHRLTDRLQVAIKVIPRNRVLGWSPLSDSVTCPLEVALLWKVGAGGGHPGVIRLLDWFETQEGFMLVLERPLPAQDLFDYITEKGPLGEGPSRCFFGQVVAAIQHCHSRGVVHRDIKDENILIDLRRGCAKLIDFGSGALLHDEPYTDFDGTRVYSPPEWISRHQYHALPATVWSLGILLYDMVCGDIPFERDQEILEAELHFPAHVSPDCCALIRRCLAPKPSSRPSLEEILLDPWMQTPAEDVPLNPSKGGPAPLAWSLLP

various kinases [12] = molecular target: various kinases (Homo sapiens, UniProt Q9NWZ3); conditions: IRAK4
various kinases [13] = molecular target: T2, various kinases (Homo sapiens, UniProt P42681); conditions: kinase TXK; ZLYTE
T2 sequence (P42681 1-527): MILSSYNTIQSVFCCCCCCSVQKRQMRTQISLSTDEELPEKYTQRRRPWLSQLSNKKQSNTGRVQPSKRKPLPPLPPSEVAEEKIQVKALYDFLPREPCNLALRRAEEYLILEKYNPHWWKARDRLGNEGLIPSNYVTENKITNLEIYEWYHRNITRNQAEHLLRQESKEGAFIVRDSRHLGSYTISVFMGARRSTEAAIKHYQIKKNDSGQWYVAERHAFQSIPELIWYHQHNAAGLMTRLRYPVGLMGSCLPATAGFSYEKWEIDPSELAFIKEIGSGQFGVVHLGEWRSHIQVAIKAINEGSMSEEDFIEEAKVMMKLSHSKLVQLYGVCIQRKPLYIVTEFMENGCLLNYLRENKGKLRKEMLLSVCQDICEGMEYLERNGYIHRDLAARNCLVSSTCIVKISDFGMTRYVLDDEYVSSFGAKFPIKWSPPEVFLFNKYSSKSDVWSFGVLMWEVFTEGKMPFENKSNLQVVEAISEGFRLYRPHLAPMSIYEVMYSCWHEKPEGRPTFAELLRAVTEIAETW

various kinases [14] = molecular target: various kinases (Homo sapiens, UniProt O43781); conditions: DYRK3
various kinases [15] = molecular target: various kinases (Homo sapiens, UniProt P78368); conditions: CSNK1G2 (CK1 gamma 2)
Sequence of various kinases (Homo sapiens, UniProt P78368) (P78368 whole entry): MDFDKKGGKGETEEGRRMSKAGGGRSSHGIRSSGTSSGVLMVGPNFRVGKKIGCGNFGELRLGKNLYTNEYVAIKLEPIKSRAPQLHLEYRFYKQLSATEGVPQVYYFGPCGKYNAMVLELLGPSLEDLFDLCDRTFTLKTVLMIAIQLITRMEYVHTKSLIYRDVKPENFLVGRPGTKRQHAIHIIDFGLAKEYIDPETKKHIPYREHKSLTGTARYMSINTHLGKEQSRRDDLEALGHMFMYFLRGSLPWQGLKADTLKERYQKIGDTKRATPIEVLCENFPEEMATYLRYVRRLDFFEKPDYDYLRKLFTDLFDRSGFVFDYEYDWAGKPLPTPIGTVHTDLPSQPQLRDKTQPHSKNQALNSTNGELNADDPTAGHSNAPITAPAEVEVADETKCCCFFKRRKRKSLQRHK

various kinases [16] = molecular target: various kinases (Homo sapiens, UniProt P00533, L858R); conditions: EGFR (ErbB1) L858R
various kinases [17] = molecular target: various kinases (Homo sapiens, UniProt Q9UK32); conditions: kinase RPS6KA6 (RSK4); ZLYTE
Sequence of various kinases (Homo sapiens, UniProt Q9UK32) (Q9UK32 whole entry): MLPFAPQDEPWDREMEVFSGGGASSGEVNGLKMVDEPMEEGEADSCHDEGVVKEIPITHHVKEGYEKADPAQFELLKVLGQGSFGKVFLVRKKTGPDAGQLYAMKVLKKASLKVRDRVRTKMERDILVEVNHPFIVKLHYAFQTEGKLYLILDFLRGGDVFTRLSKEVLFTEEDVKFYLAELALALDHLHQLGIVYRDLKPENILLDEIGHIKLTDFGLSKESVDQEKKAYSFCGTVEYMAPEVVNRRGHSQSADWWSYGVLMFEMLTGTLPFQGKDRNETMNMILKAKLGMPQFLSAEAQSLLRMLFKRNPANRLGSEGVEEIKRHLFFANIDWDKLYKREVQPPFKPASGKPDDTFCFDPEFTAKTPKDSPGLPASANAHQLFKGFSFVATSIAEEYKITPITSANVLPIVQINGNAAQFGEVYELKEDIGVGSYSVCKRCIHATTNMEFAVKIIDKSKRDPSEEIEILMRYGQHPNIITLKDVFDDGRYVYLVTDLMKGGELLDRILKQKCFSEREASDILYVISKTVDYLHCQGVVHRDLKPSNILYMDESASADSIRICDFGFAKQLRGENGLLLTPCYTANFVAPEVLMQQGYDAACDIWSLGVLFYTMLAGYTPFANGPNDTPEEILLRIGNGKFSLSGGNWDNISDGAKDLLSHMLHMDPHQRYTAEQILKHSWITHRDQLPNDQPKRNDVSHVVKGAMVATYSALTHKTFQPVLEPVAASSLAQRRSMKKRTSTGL

various kinases [18] = molecular target: various kinases (Homo sapiens, UniProt P07949); conditions: kinase RET; ZLYTE
Sequence of various kinases (Homo sapiens, UniProt P07949) (P07949 29-1114): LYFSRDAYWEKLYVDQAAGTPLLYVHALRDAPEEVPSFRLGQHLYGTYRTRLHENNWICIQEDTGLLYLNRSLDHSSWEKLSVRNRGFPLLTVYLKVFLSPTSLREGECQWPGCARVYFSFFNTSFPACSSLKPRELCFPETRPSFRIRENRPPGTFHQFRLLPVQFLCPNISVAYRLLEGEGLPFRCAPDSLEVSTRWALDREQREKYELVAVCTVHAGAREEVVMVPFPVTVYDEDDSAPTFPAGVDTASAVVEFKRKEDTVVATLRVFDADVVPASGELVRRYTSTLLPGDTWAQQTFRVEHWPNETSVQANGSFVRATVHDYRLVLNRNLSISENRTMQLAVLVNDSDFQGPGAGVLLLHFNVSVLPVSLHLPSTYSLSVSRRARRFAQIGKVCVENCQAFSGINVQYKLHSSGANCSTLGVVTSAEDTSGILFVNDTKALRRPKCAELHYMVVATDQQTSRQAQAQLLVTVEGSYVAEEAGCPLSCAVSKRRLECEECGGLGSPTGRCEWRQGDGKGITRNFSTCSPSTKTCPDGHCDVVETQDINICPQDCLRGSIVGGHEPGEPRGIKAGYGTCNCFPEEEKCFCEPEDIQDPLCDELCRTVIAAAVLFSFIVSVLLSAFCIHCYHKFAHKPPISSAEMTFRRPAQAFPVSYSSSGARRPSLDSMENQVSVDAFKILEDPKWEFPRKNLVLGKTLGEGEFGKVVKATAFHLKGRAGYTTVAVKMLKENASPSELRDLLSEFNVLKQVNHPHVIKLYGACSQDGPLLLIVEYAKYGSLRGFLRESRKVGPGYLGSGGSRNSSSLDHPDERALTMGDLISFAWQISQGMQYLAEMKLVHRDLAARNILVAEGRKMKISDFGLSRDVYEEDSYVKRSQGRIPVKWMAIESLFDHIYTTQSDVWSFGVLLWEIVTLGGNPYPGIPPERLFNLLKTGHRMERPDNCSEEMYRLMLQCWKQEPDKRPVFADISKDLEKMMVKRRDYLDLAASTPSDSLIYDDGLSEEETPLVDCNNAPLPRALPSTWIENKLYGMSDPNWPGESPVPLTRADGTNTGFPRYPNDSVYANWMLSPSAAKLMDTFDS

various kinases [19] = molecular target: various kinases (Homo sapiens, UniProt Q6VAB6); conditions: KSR2
various kinases [20] = molecular target: various kinases (Homo sapiens, UniProt Q9Y5S2); conditions: CDC42 BPB (MRCKB)
various kinases [21] = molecular target: various kinases (Homo sapiens, UniProt P08581, Y1235D); conditions: MET (cMet) Y1235D

Sequence of various kinases (Homo sapiens, UniProt O15530) (O15530 whole entry): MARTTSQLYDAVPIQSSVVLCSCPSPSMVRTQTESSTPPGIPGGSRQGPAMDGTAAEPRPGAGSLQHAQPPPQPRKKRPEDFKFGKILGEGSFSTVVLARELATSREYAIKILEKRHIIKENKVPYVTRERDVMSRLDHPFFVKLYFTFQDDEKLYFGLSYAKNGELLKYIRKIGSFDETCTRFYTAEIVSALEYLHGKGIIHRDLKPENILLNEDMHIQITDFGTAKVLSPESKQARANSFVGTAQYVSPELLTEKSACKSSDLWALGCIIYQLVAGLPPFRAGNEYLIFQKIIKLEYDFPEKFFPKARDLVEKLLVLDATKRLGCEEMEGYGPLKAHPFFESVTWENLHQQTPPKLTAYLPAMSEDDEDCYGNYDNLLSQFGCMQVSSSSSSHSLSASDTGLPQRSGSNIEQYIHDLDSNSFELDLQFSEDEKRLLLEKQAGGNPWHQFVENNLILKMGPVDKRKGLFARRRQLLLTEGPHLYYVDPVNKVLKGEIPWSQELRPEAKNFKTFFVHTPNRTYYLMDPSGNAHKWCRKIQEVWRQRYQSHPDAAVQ

COc1ccc2c(c1)[C@]1(C[C@H]1c1ccc3c(/C=C/c4ccc(CN5C[C@@H](C)O[C@@H](C)C5)cc4)n[nH]c3c1)C(=O)N2 [CFI-400945]
% Inhibition (various kinases [1]; PDK1): 3% and 2% | % Inhibition (various kinases [1]; PDK1 Direct): 6% | % Inhibition Average (various kinases [2]): 2% | % Inhibition Duplicate #1 (various kinases [2]): 1% | % Inhibition Duplicate #2 (various kinases [2]): 2% | % Inhibition (various kinases [3]): -1% and 2% | % Inhibition (various kinases [4]): 59% and 55% | % Inhibition (various kinases [5]): 15% and 12% | % Inhibition (various kinases [6]): 9% and 19% | % Inhibition Average (various kinases [7]): 10% | % Inhibition Duplicate #1 (various kinases [7]): 10% | % Inhibition Duplicate #2 (various kinases [7]): 11% | % Inhibition (various kinases [8]): 5% and 4% | % Inhibition Average (various kinases [9]): 7% | % Inhibition Duplicate #1 (various kinases [9]): 7% | % Inhibition Duplicate #2 (various kinases [9]): 7% | % Inhibition (various kinases [10]): -1% and 0% | % Inhibition (various kinases [11]): 8% and 9% | % Inhibition (various kinases [12]): 0% and -3% | % Inhibition Average (various kinases [13]): 7% | % Inhibition Duplicate #1 (various kinases [13]): 6% | % Inhibition Duplicate #2 (various kinases [13]): 8% | % Inhibition (various kinases [14]): 9% and 5% | % Inhibition (various kinases [15]): 1% and 3% | % Inhibition (various kinases [16]): 1% and 2% | % Inhibition Average (various kinases [17]): 4% | % Inhibition Duplicate #1 (various kinases [17]): 6% | % Inhibition Duplicate #2 (various kinases [17]): 3% | % Inhibition Average (various kinases [18]): 16% | % Inhibition Duplicate #1 (various kinases [18]): 14% | % Inhibition Duplicate #2 (various kinases [18]): 18% | % Inhibition (various kinases [19]): 3% and 4% | % Inhibition (various kinases [20]): -1% and 2% | % Inhibition (various kinases [21]): 5% and 6%
